Data set [1] concerns the target T1, Mitogen-activated protein kinase 14 (Homo sapiens, UniProt Q16539). Description: Inhibition of p38 alpha (unknown origin) using biotinylated FL-ATF-2 as substrate measured after 22 mins by homogeneous time-resolved fluorescence analysis.
The next data set has as its target CYP2C9 (Homo sapiens, UniProt P11712). Description: Inhibition of CYP2C9 (unknown origin) assessed as tolbutamide hydroxylation to hydrocytolbutamide at 10 uM by cocktail inhibition assay relative to control. The following applies: probe tolbutamide (hydroxylation to hydroxytolbutamide).
The target in the next data set is T2, CYP1A2 (Homo sapiens, UniProt P05177).
T2 sequence (P05177 whole entry): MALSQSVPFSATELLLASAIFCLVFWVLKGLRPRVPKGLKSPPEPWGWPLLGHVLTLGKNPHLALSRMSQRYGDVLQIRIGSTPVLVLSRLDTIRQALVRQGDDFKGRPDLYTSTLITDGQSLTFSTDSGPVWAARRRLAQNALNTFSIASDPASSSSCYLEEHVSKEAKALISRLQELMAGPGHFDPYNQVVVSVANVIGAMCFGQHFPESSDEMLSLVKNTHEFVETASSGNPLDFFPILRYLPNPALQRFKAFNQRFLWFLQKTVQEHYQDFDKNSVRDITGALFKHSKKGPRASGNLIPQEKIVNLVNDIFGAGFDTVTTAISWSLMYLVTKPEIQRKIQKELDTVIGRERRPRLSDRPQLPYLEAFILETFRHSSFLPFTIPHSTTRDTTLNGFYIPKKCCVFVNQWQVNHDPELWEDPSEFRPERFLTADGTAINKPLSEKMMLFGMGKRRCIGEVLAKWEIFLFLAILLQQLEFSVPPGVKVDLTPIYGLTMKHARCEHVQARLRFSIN
Put plainly: Inhibition of CYP1A2 (unknown origin) assessed as phenaceten demethylation to acetaminophen at 10 uM by cocktail inhibition assay relative to control. The following applies: probe phenacetin (demethylation to acetaminophen).

The nature of data set [2]: Selectivity index, ratio of IC50 for p38 alpha (unknown origin) to IC50 for JNK3 (unknown origin).
The target of data set [3] is T3, Mitogen-activated protein kinase 9 (Homo sapiens, UniProt P45984). Description: Inhibition of JNK2 (unknown origin) using biotinylated FL-ATF-2 as substrate measured after 22 mins by homogeneous time-resolved fluorescence analysis.
Target sequence in this assay (P45984 whole entry): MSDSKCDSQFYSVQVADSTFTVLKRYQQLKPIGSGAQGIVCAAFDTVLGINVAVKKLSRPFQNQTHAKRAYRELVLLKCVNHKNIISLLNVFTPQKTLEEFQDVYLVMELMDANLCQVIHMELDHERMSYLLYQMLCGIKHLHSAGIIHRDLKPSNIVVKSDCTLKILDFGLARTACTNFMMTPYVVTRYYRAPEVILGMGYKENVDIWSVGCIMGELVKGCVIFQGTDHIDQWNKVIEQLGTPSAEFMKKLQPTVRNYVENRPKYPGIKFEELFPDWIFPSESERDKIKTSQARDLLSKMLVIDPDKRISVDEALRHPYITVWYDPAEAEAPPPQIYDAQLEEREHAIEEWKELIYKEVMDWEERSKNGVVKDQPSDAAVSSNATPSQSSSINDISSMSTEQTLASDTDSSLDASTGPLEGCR
Data set [4] in a line: Stability in mouse liver microsome assessed as half life. It is filed as ADME. The note with it: liver microsomes.
The nature of data set [5]: Stability in human liver microsome assessed as half life. It is filed as ADME. The following applies: liver microsomes. In general terms: Liver microsomes are a subcellular fraction often used to study metabolism.
Data set [6] concerns the target T4, Mitogen-activated protein kinase 8 (Homo sapiens, UniProt P45983). Description: Inhibition of JNK1 (unknown origin) using biotinylated FL-ATF-2 as substrate measured after 22 mins by homogeneous time-resolved fluorescence analysis.
For another data set, the target named is Cytochrome P450 2C9 (Homo sapiens, UniProt P11712). Put plainly: Inhibition of CYP2C9 (unknown origin) by titration method.
A short description of data set [7]: Selectivity index, ratio of IC50 for JNK1 (unknown origin) to IC50 for JNK3 (unknown origin).
In data set [8] the target is T5, Mitogen-activated protein kinase 10 (Homo sapiens, UniProt P53779). Put plainly: Inhibition of JNK3alpha1 (unknown origin) using biotinylated FL-ATF-2 as substrate measured after 22 mins by homogeneous time-resolved fluorescence analysis.
The target in another data set is CYP2D6 (Homo sapiens, UniProt P10635). Put plainly: Inhibition of CYP2D6 (unknown origin) assessed as bufuralol hydroxylation to 4'-hydroxy bufuralol at 10 uM by cocktail inhibition assay relative to control. The note with it: probe bufuralol (hydroxylation to 4'-hydroxy bufuralol).
A short description of data set [9]: Selectivity index, ratio of IC50 for JNK2 (unknown origin) to IC50 for JNK3 (unknown origin).
For another data set, the system named is SH-SY5Y. Description: Cytotoxicity against human SH-SY5Y cells assessed as reduction in cell viability at 10 uM measured after 48 hrs by MTT assay. It is filed as cell-based. (In general: Formazan colour is commonly taken as a measure of viable cells.)
The next data set has as its target CYP3A4 (Homo sapiens, UniProt P08684). Description: Inhibition of CYP3A4 (unknown origin) assessed as midazolam hydroxylation to 1'-hydroxy midazolam at 10 uM by cocktail inhibition assay relative to control. The following applies: probe midazolam (hydroxylation to 1'-hydroxy midazolam).
Data set [10] has as its target Voltage-gated inwardly rectifying potassium channel KCNH2 (Homo sapiens, UniProt Q12809). Put plainly: Inhibition of human ERG expressed in CHO cells at -80 mV holding potential by automated Qpatch electrophysiological method. For orientation: In patch-clamp work, channel activity is measured electrically.
Data set [11] concerns the target T5, Mitogen-activated protein kinase 10. Put plainly: Inhibition of human JNK3 at 1 uM using ATF2 as substrate by [gamma-33P]-ATP assay relative to control.
Data set [12] concerns the target T4, Mitogen-activated protein kinase 8. Description: Inhibition of human JNK1 using ATF2 as substrate by [gamma-33P]-ATP assay. The note with it: dose 1.0 µM.
The nature of data set [13]: Drug concentration in C57BL/6J mouse brain at 30 mg/kg, po measured after 2 hrs by LC-MS/MS analysis. Type of data set: ADME, organism-based. The following applies: read-out: Ct.
Data set [14] addresses T6, Casein kinase I isoform epsilon (Homo sapiens, UniProt P49674). Description: Inhibition of human CK1E at 1 uM using KRRRAL[pS]VASLPGL as substrate by [gamma-33P]-ATP assay relative to control.
In data set [15] the target is T7, Epithelial discoidin domain-containing receptor 1 (Homo sapiens, UniProt Q08345). Put plainly: Inhibition of human DDR1 using KKSRGDYMTMQIG as substrate by [gamma-33P]-ATP assay.
For data set [16], the target named is T1, Mitogen-activated protein kinase 14. Description: Inhibition of human p38alpha at 1 uM using MBP as substrate by [gamma-33P]-ATP assay relative to control.
The target in data set [17] is T3, Mitogen-activated protein kinase 9. Description: Inhibition of human JNK2 at 1 uM using ATF2 as substrate by [gamma-33P]-ATP assay relative to control.
Data set [18] deals with T6, Casein kinase I isoform epsilon. Description: Inhibition of human CK1E using KRRRAL[pS]VASLPGL as substrate by [gamma-33P]-ATP assay.
Data set [19] concerns the target Mitogen-activated protein kinase 10 (Rattus norvegicus) (UniProt P49187). Description: Inhibition of JNK3 in rat primary neuron assessed as reduction in phosphorylation of APP at T668 residue at < 1 nM incubated for 30 mins by Western blot analysis. The following applies: dose nM <1, time 30.0 min.
The target of data set [20] is Protein-tyrosine kinase 6 (Homo sapiens) (UniProt Q13882). Put plainly: Inhibition of human BRK at 1 uM using poly[Glu:Tyr](4:1) as substrate by [gamma-33P]-ATP assay relative to control.
The target in data set [21] is T7, Epithelial discoidin domain-containing receptor 1. Description: Inhibition of human DDR1 at 1 uM using KKSRGDYMTMQIG as substrate by [gamma-33P]-ATP assay relative to control.
The nature of data set [22]: Drug concentration in C57BL/6J mouse plasma at 30 mg/kg, po measured after 2 hrs by LC-MS/MS analysis. It is filed as ADME, organism-based.

Active and inactive are the calls of the source. The calls are words filed in the database; no cut-off is given here.

CYP3A4, sequence (P08684 whole entry): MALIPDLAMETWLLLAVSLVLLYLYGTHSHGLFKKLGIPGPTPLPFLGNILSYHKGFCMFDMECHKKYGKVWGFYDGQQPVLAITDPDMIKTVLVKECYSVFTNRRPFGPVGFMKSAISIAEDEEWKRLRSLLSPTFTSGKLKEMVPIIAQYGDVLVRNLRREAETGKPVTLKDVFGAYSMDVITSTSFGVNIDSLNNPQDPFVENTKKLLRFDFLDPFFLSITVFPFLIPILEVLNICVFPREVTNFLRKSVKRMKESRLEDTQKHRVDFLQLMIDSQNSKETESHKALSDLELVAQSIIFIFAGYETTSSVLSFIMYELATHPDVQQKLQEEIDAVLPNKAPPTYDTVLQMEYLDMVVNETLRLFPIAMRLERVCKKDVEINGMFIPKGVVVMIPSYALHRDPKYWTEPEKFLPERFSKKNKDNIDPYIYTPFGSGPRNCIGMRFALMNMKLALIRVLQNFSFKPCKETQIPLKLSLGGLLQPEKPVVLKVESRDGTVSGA
T1 sequence (Q16539 whole entry): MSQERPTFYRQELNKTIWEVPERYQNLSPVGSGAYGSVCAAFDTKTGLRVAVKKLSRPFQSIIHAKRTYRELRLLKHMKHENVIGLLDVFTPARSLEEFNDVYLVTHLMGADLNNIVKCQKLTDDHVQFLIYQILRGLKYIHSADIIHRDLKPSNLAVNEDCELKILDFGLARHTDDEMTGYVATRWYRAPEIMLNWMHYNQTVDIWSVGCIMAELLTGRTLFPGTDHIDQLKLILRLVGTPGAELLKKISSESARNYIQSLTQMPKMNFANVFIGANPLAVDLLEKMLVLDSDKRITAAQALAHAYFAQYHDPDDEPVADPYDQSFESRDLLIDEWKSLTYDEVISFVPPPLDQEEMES
CYP2D6, sequence (P10635 whole entry): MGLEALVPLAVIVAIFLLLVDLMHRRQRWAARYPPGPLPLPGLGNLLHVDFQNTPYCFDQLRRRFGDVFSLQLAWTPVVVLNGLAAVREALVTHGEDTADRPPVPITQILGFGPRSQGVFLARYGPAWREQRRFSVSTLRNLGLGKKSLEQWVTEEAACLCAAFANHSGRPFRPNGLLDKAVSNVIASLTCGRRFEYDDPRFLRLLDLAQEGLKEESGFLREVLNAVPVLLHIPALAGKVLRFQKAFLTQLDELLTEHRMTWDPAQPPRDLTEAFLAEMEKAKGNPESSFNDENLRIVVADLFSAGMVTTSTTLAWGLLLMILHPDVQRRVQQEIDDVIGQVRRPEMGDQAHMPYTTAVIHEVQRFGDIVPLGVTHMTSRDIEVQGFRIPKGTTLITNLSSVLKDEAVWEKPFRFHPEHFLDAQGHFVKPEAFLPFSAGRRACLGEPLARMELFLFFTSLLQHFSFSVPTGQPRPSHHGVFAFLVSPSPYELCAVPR
T4 sequence (P45983 whole entry): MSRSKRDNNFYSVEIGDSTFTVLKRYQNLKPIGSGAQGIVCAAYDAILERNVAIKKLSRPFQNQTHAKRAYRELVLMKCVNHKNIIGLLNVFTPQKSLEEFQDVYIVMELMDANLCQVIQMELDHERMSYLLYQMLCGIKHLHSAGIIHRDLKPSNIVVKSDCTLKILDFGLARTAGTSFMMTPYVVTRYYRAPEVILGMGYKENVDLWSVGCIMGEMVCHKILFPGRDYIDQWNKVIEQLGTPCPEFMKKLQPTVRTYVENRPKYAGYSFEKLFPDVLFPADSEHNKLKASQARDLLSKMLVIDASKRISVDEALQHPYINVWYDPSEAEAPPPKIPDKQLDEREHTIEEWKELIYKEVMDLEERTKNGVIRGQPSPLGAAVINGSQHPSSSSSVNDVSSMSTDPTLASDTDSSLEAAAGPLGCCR
CYP2C9, sequence (P11712 whole entry): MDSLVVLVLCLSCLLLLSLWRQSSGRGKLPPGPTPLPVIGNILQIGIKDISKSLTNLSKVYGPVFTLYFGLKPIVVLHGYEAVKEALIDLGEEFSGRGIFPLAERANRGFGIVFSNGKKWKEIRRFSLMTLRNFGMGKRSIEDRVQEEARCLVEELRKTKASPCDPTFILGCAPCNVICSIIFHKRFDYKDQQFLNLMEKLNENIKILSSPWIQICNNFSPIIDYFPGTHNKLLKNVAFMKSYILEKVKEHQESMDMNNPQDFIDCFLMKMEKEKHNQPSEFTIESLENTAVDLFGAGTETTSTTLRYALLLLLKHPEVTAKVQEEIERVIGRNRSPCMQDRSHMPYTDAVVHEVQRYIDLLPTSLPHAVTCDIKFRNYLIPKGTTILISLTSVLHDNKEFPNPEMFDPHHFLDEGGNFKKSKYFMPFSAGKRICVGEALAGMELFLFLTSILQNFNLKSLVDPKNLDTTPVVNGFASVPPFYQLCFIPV
Voltage-gated inwardly rectifying potassium channel KCNH2, sequence (Q12809 whole entry): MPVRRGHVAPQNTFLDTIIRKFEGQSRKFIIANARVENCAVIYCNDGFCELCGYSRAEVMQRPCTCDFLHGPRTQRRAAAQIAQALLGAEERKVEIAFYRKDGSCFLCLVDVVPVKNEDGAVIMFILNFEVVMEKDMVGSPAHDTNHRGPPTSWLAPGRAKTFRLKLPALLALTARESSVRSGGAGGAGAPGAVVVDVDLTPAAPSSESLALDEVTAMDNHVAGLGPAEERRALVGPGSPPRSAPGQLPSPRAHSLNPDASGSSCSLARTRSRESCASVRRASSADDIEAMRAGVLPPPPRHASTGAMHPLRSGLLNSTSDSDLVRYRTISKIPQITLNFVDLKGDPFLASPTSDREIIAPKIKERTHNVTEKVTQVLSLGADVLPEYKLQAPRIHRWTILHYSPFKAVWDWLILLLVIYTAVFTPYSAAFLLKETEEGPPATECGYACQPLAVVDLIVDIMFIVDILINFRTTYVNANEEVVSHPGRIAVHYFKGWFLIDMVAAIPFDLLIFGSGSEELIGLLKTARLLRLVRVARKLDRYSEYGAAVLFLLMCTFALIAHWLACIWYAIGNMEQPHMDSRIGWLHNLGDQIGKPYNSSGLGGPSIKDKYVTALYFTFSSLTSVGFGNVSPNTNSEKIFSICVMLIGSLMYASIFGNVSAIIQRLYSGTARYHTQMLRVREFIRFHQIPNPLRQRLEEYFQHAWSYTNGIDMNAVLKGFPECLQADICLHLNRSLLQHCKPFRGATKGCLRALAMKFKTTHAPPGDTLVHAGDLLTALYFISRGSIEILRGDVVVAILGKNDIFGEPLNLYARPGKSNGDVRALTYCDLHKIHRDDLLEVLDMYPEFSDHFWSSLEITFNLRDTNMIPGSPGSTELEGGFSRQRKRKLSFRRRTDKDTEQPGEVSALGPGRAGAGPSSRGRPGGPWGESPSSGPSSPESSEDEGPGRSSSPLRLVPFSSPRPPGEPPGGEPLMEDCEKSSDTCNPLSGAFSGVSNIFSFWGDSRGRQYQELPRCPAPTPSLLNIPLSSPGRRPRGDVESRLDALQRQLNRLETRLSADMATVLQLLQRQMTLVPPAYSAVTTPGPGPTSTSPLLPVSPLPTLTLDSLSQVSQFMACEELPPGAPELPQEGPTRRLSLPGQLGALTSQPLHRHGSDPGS
T5 sequence (P53779 whole entry): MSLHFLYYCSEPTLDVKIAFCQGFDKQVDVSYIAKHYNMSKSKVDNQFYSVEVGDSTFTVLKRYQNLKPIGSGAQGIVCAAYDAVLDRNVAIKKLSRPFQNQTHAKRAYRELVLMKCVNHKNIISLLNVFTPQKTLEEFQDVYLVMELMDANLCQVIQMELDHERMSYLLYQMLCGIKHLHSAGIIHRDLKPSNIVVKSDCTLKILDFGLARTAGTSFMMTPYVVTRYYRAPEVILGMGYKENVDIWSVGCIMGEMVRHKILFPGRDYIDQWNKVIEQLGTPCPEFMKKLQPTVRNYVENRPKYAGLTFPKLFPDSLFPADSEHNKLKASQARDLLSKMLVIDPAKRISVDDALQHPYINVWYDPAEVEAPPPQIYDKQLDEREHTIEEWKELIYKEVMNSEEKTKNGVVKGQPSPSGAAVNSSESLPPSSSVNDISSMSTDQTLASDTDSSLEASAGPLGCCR
Cytochrome P450 2C9, sequence (P11712 whole entry): as the sequence (P11712 whole entry) above
Mitogen-activated protein kinase 10 (Rattus norvegicus), sequence (P49187 whole entry): as the sequence (P53779 whole entry) above, with Q27H, Y32S, I33V, A34V counted along it

Take `O=C(NC1COC1)c1cc(-n2ncc3cc(Nc4ccccc4Cl)cnc32)cs1`: the IC50 – broadly, the concentration at which inhibition is half-maximal – in data set [1] amounted to 260 nM; in [3] it was 256 nM; in [6] it was 940 nM; against Cytochrome P450 2C9 it was 4000 nM; in data set [8], 6 nM. Besides, the inhibition (commonly the change of the read-out against control, counted positive when it falls) at 10 µM on CYP2C9 amounted to 76%; at CYP1A2, 19%; at CYP2D6 it was 15%; at CYP3A4, 14%. Moreover, the results for the Ratio IC50 in data set [2], in data set [7] and in [9] were 43, 157 and 43, respectively. Besides, the half-life – broadly, how long it takes for the measured level to halve – in data set [4] was found to be 9 min; in data set [5], 21 min. In the data set with SH-SY5Y, the Cell viability stood at 103%.
Take `CNC(=O)c1cc(-n2ncc3cc(Nc4c(F)cccc4Cl)c(C)nc32)cs1`: the IC50 was greater than 30000 nM in data set [10]; 380 nM in [1]; 140 nM in data set [3]; 872 nM in [6]; 12 nM in [8]. The inhibition at 10 µM on CYP2C9 is 61%; at CYP1A2, 43%; on CYP2D6, 19%; on CYP3A4 it was -2%. The Ratio IC50 in data set [2] came out at 31; in data set [7], 73; in [9], 11. Moreover, the values for the half-life in data set [4] and in [5] were 17 min and 26 min, respectively. In addition, the Cell viability in the data set on SH-SY5Y turned out to be 109%.
For `Cc1nc2c(cnn2-c2csc(C(=O)NC3COC3)c2)cc1Nc1c(F)cccc1Cl`, the inhibition in [11] was determined as 89%; in [12], 30%; in data set [14], 78%; in data set [16] it was 75%; in data set [17], 81%; in data set [20], 55%. Also, the inhibition in [21] came to 73%. The concentration at 2 h in [13] was 3.3 µM; in data set [22] it was 5.9 µM. In addition, the results for the IC50 in [3], in data set [15] and in data set [18] were 74 nM, 247 nM and 100 nM, respectively. Also, the half-life in [4] worked out at 77 min; in [5] it was 92 min. For the same molecule, in the data set with SH-SY5Y, the Cell viability is recorded as 116%. The inhibition entry in data set [19] was “Active”.
For `CNC(=O)c1cc(-n2ncc3cc(Nc4ccccc4Cl)cnc32)cs1`, the IC50 in data set [10] was greater than 100000 nM; in data set [1], 481 nM; in data set [3], 414 nM; in data set [6], 4730 nM; at Cytochrome P450 2C9, 4000 nM; in data set [8], 24 nM. For the same molecule, the inhibition at 10 µM worked out at 66% on CYP2C9, 30% at CYP1A2, 30% on CYP2D6 and 57% at CYP3A4. Also, the results for the Ratio IC50 in data set [2], in data set [7] and in data set [9] were 20, 197 and 17, respectively. The values for the half-life in data set [4] and in data set [5] were 14 min and 15 min, respectively. In addition, the Cell viability in the data set on SH-SY5Y worked out at 119%.
`CNC(=O)c1cc(-n2ncc3cc(Nc4ccccc4Cl)c(F)cc32)cs1`: the IC50 in data set [10] is greater than 30000 nM; in data set [1] it was 100 nM; in data set [3], 93 nM; in data set [6], 619 nM; in [8] it was 5 nM. Moreover, the inhibition at 10 µM was 39% at CYP2C9, 21% at CYP1A2, -4% at CYP2D6 and -13% at CYP3A4. Besides, the figures for the Ratio IC50 in [2], in data set [7] and in data set [9] were 20, 124 and 18, respectively. The half-life in data set [4] was found to be 42 min; in data set [5] it was 37 min. In the data set with SH-SY5Y, the Cell viability amounted to 83%. For the same molecule, the inhibition entry in data set [19] is “Active”.

(Values after ChEMBL document CHEMBL4837263, “N-Aromatic-Substituted Indazole Derivatives as Brain-Penetrant and Orally Bioavailable JNK3 Inhibitors” (ACS Med Chem Lett, 2021).)
